What was measured:
Format in all cases: cell-based
[1] = biological target: T1, N-formyl peptide receptor 2 (Homo sapiens, UniProt P25090); assay: Agonist activity at human FPR2 expressed in CHO cells assessed as increase in calcium flux incubated for 50 mins by FLIPR calcium 5 dye based fluorescence assay
T1 sequence (P25090 whole entry): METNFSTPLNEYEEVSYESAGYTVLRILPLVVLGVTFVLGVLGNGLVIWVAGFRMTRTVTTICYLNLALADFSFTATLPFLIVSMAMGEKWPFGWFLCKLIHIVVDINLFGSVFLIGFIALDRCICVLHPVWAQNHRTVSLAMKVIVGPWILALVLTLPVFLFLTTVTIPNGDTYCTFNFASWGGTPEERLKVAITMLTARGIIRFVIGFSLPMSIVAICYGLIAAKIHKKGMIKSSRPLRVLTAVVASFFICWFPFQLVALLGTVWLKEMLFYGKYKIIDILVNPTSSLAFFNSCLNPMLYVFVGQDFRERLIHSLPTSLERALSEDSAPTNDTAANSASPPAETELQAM

[2] = biological target: T2, fMet-Leu-Phe receptor (Homo sapiens) (UniProt P21462); assay: Agonist activity at FPR1 (unknown origin) expressed in CHO/Galpha16 cells assessed as maximal calcium flux at 0.61 to 10000 nM by FLIPR assay relative to control; settings: dose 0.61-10000 nM
T2 sequence (whole entry): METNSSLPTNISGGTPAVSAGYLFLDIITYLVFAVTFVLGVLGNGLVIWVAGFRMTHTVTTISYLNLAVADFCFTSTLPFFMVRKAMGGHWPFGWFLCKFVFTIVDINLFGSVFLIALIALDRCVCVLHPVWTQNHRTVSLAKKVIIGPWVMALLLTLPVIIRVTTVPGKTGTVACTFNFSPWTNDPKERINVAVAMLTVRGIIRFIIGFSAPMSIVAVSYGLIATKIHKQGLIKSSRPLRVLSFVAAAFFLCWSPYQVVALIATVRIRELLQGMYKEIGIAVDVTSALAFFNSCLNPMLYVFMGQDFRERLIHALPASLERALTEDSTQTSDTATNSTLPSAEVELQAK

[3] = biological target: T3, N-formyl peptide receptor 2 (Homo sapiens) (UniProt P25090); assay: Agonist activity at FPR2 (unknown origin) expressed in CHO/Galpha16 cells assessed as maximal calcium flux at 0.61 to 10000 nM by FLIPR assay relative to control; settings: dose 0.61-10000 nM
T3 sequence (whole entry): T1 sequence (P25090 whole entry)

Homo sapiens = species: Homo sapiens; assay: Selectivity index, ratio of EC50 for agonist activity at FPR2 (unknown origin) expressed in CHO/Galpha16 cells to EC50 for FPR1 (unknown origin) expressed in CHO/Galpha16 cells
[4] = biological target: T1, N-formyl peptide receptor 2; assay: Agonist activity at human FPR2 transfected in HL-60 cells assessed as increase in intracellular calcium flux incubated for 30 mins by Fluo-4 AM dye based fluorometer analysis
fMet-Leu-Phe receptor [5] = biological target: T4, fMet-Leu-Phe receptor (Homo sapiens, UniProt P21462); assay: Agonist activity at human FPR1 transfected in HL-60 cells assessed as increase in intracellular calcium flux incubated for 30 mins by Fluo-4 AM dye based fluorometer analysis
T4 sequence (P21462 whole entry): T2 sequence (whole entry)

[6] = biological target: T1, N-formyl peptide receptor 2; assay: Agonist activity at human FPR2 expressed in CHO cells assessed as cAMP level incubated for 1.5 hr by HTRF assay
fMet-Leu-Phe receptor [7] = biological target: T4, fMet-Leu-Phe receptor; assay: Agonist activity at FPR1 (unknown origin) expressed in CHO/Galpha16 cells assessed as increase in calcium flux by FLIPR assay
[8] = biological target: T1, N-formyl peptide receptor 2; assay: Agonist activity at FPR2 (unknown origin) expressed in CHO/Galpha16 cells assessed as increase in calcium flux by FLIPR assay
fMet-Leu-Phe receptor [9] = biological target: T4, fMet-Leu-Phe receptor; assay: Agonist activity at human FPR1 expressed in CHO cells assessed as increase in calcium flux incubated for 50 mins by FLIPR calcium 5 dye based fluorescence assay
fMet-Leu-Phe receptor [10] = biological target: T4, fMet-Leu-Phe receptor; assay: Agonist activity at human FPR1 expressed in CHO cells assessed as cAMP level incubated for 1.5 hr by HTRF assay
[11] = biological target: T3, N-formyl peptide receptor 2 (Homo sapiens); assay: Agonist activity at human FPR2 transfected in HL-60 cells assessed as maximal intracellular calcium flux incubated for 30 mins by Fluo-4 AM dye based fluorometer analysis relative to control; settings: filed as agonist

SMILES: COc1ccc([C@H]2CCNC(=O)[C@@H]2NC(=O)Nc2ccc(Cl)cc2)cc1
- EC50 [1]: < 1 nM

SMILES: CCC[C@H](NC(=O)CNC(=O)Nc1ccc(Br)cc1)C(=O)O
- Emax [2]: 98%
- Emax [3]: 105%
- Ratio EC50 (Homo sapiens): 62

SMILES: CC(C)C(C(=O)O)C(C)NC(=O)Nc1ccc(Br)cc1 (stereo in doubt; 19)
- Emax [2]: 103%
- Emax [3]: 56%
- Ratio EC50 (Homo sapiens): 249

SMILES: N#Cc1ccc(C[C@H](NC(=O)Nc2ccc(O)cc2)C(=O)NCC2(c3ccccc3)CC2)cc1
- EC50 ([4]; hl-60): Not Active
- EC50 (fMet-Leu-Phe receptor [5]; hl-60): Not Active

SMILES: O=C(Nc1ccc(C(F)(F)F)cc1)N[C@@H]1CCCN(c2ccc(N3CCOCC3)cc2)C1=O
- EC50 [6]: < 10 nM

SMILES: CC(C)C(C(=O)O)C(C)NC(=O)Nc1ccc(Br)cc1 (stereo in doubt; 21) [listing 1 of 2 here]
- EC50 (fMet-Leu-Phe receptor [7]): 1.7 nM
- EC50 [8]: 0.025 µM

SMILES: CP(C)(=O)c1ccccc1-c1ccc(N2CC[C@@H](NC(=O)Nc3csc(Cl)c3)C2=O)c(F)c1F
- EC50 [6]: 2.9 nM

SMILES: NC(=O)c1ccccc1-c1ccc(N2CCCC(NC(=O)Nc3ccc(C(F)(F)F)cc3)C2=O)cc1 (racemic)
- EC50 [6]: 40 nM

SMILES: COc1cc(F)c([C@H]2CCN(CCC(F)F)C[C@@H]2NC(=O)Nc2ccc(Cl)cc2)c(F)c1 (relative stereo; form 1)
- EC50 (fMet-Leu-Phe receptor [9]): 1 nM
- EC50 [1]: 1 nM

SMILES: Cc1cccc(C2(NC(=O)N[C@@H]3C(=O)NC[C@H]3c3c(F)cc(Cl)cc3F)CC2)n1
- EC50 [6]: 100 nM
- EC50 (fMet-Leu-Phe receptor [10]; cho): Not Active

SMILES: COc1ccc([C@H]2CCN(c3ccnnc3)C[C@@H]2NC(=O)Nc2ccc(Cl)cc2)cc1 (relative stereo)
- EC50 (fMet-Leu-Phe receptor [9]): 1 nM
- EC50 [1]: 1 nM

SMILES: O=C(CNC(=O)Nc1ccc(Br)cc1)N[C@@H](Cc1ccccc1)C(=O)O
- Emax [2]: 97%
- Emax [3]: 197%
- Ratio EC50 (Homo sapiens): 24

SMILES: O=C(Nc1ccc(C(F)(F)F)cc1)N[C@H]1CCCN(c2ccc(-c3ccccc3C(=O)O)cc2)C1=O
- EC50 [6]: 40 nM

SMILES: CC(C)C(C(=O)O)C(C)NC(=O)Nc1ccc(Br)cc1 (stereo in doubt; 21) [listing 2 of 2 here]
- Emax [2]: 93%

SMILES: COc1ccc(NC(=O)N[C@H](Cc2ccc(C#N)cc2)C(=O)NCC2(c3cccc(O)c3)CC2)cc1
- EC50 ([4]; read-out: EC50): 7000 nM
- EC50 (fMet-Leu-Phe receptor [5]; hl-60): Not Active
- Emax [11]: 70%

SMILES: N#Cc1ccc(C[C@@H](NC(=O)Nc2ccc(O)cc2)C(=O)NCC2(c3ccccc3)CC2)cc1
- EC50 ([4]; hl-60): Not Active
- EC50 (fMet-Leu-Phe receptor [5]; hl-60): Not Active

SMILES: Cc1cccc(C2(NC(=O)N[C@@H]3C(=O)NC[C@H]3c3c(F)cc(Br)cc3F)CC2)n1
- EC50 [6]: 10 nM
- EC50 (fMet-Leu-Phe receptor [10]; cho): Not Active

SMILES: CC(C)C(C(=O)O)C(C)NC(=O)Nc1ccc(Br)cc1 (stereo in doubt; 20) [listing 1 of 2 here]
- Emax [2]: 91%
- Emax [3]: 75%
- Ratio EC50 (Homo sapiens): 101

SMILES: CP(C)(=O)c1ccccc1-c1ccc(N2CC3(CC3)[C@@H](NC(=O)Nc3ccc(Cl)cc3F)C2=O)c(F)c1F
- EC50 (fMet-Leu-Phe receptor [10]; read-out: EC50): > 5 µM

SMILES: COc1ccc(NC(=O)N[C@@H](Cc2ccc(C#N)cc2)C(=O)NCC2(c3cccc(O)c3)CC2)cc1
- EC50 ([4]; read-out: EC50): 180 nM
- EC50 (fMet-Leu-Phe receptor [5]; read-out: EC50): 1400 nM
- Emax [11]: 115%

SMILES: CC(C)C(C(=O)O)C(C)NC(=O)Nc1ccc(Br)cc1 (stereo in doubt; 20) [listing 2 of 2 here]
- EC50 (fMet-Leu-Phe receptor [7]): 98 nM
- EC50 [8]: 9.94 µM

SMILES: CC(C)C(C(=O)O)C(C)NC(=O)Nc1ccc(Br)cc1 (stereo in doubt; 18)
- Emax [2]: 94%
- Emax [3]: 89%
- Ratio EC50 (Homo sapiens): 17

SMILES: O=C(Nc1ccc(C(F)(F)F)cc1)NC1CCCN(c2ccc(-c3ccccc3F)cc2)C1=O (racemic)
- EC50 [6]: < 5 nM

SMILES: COc1ccc(NC(=O)N[C@@H](Cc2ccc(C#N)cc2)C(=O)NCC2(c3ccc(O)cc3)CC2)cc1
- EC50 ([4]; read-out: EC50): 1600 nM
- EC50 (fMet-Leu-Phe receptor [5]; read-out: EC50): 1300 nM
- Emax [11]: 75%

SMILES: COc1ccc([C@H]2CCN(Cc3ccccn3)C(=O)[C@@H]2NC(=O)Nc2ccc(F)cc2)cc1 (relative stereo)
- EC50 (fMet-Leu-Phe receptor [9]): 1 nM
- EC50 [1]: < 1 nM

SMILES: CC(=O)N1CCN(c2ccc(N3CCC[C@@H](NC(=O)Nc4ccc(C(F)(F)F)cc4)C3=O)cc2)CC1
- EC50 [6]: 100 nM

SMILES: O=C(Nc1ccccc1F)N[C@@H]1CCCN(c2ccc(-c3ccccc3F)cc2)C1=O
- EC50 [6]: 40 nM
